Key:
[1] = target: Cholinesterase (Homo sapiens, UniProt P06276); test: (§1) Inhibition Assay: The biological activity of the compounds of general formula (I) towards the cholinesterase inhibition was evaluated using Ellman's method (Ellman, G. L.; Courtney, K. D.; Anders, B.; Featherstone, R. M. Biochem. Pharmacol. 1961, 7, 88-95).This method of evaluation of the cholinesterase inhibitors activity is based on the fact that acetyl/butyrylcholinesterase interacts with the inhibitor, which prevents the acetyl/butyrylcholine hydrolysis. The inhibitor causes the enzyme activity drop which is dependent on the inhibitor concentration. The enzyme unbound with the inhibitor is able to hydrolyze acetyl/butyrylthiocholine (ASCh/BSCh). The amount of the hydrolyzed ASCh/BSCh is measured indirectly, by quantification of the product of its reaction with DTNB (5,5â²-dithio-bis-2-nitrobenzoic acid). Ellman's method relies therefore on the spectrophotometric quantification of product of the reaction between […] and DTNB.
[2] = target: Acetylcholinesterase (Homo sapiens, UniProt P22303); test: as §1
Acetylcholinesterase, sequence (P22303 whole entry): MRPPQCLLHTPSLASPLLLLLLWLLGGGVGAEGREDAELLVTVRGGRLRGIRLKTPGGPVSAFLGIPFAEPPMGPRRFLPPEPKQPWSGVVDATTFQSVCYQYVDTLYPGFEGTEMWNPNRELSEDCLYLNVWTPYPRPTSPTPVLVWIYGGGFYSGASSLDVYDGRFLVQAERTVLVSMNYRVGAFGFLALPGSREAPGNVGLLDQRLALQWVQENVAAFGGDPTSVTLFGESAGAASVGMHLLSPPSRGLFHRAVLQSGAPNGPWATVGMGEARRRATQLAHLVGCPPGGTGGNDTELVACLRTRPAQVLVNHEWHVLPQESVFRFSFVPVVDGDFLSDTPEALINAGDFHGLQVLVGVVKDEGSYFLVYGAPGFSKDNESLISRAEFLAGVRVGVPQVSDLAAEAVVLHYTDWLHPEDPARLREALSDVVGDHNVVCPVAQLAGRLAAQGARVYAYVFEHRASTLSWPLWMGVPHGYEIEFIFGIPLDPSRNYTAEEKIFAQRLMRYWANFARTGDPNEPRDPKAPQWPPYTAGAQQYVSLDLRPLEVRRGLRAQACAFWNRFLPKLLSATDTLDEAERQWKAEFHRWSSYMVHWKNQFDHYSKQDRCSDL

Cholinesterase, sequence (P06276 whole entry): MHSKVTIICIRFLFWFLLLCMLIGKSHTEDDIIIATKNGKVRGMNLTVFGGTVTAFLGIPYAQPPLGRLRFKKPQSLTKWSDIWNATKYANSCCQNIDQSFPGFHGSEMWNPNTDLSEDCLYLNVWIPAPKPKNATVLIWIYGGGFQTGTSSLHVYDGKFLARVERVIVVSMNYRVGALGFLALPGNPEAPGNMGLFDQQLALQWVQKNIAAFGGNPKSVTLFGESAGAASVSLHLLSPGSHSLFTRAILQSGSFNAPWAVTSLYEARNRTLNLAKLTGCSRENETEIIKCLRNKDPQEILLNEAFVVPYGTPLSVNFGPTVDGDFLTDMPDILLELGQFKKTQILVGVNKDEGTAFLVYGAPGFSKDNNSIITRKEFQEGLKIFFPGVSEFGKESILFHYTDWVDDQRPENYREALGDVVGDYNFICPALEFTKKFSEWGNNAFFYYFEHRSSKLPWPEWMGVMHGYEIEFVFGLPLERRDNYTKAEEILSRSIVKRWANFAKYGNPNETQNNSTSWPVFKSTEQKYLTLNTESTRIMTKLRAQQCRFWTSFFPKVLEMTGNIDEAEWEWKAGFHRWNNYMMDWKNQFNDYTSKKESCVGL

Row | Compound | IC50 [1] | IC50 [2]
1 | CC(=O)NCCc1c[nH]c2ccc(OC(=O)NCCCCCCCNc3c4c(nc5cc(Cl)ccc35)CCCC4)cc12 | 0.38 nM | 7.7 nM
2 | CC(=O)NCCc1c[nH]c2ccc(OC(=O)NCCNc3c4c(nc5cc(Cl)ccc35)CCCC4)cc12 | 34.5 nM | 20.1 nM
3 | CC(=O)NCCc1c[nH]c2ccc(OC(=O)NCCCCCCCNc3c4c(nc5ccc(Cl)cc35)CCCC4)cc12 | 0.88 nM | 39.9 nM
4 | CC(=O)NCCc1c[nH]c2ccc(OC(=O)NCCNc3c4c(nc5ccc(Cl)cc35)CCCC4)cc12 | 8.2 nM | 3280 nM
5 | CC(=O)NCCc1c[nH]c2ccc(OC(=O)NCCCCCCCCCCNc3c4c(nc5cc(Cl)ccc35)CCCC4)cc12 | 1.2 nM | 8.1 nM
6 | CC(=O)NCCc1c[nH]c2ccc(OC(=O)NCCCCCCCCCCCCNc3c4c(nc5cc(Cl)ccc35)CCCC4)cc12 | 1.31 nM | 25.6 nM
